From ChEMBL document CHEMBL1201862, “PubChem BioAssay data set” (2004)
Blank lines part the entries; values can stand above or below the molecule they belong to. The source made the active and inactive calls.

What was measured:
[1] = molecular target: Cystic fibrosis transmembrane conductance regulator/Golgi-associated PDZ and coiled-coil motif-containing protein (Homo sapiens, UniProt P13569+Q9HD26); test: CAL PDZ peptide-binding inhibitors, dose response, biochemical, fluorescence polarization, Cerulean-tagged CAL PDZ, cherry-picks (AID 504773)
[2] = molecular target: Luciferin 4-monooxygenase (Photinus pyralis, UniProt P08659); test: Counter Screen for Luciferase-based Assay Positives. [Related pubchem assays: 620, 618, 411 ]
[3] = cytotoxicity in HPDE-C7 cells, cell-based, fluorescence, HTS (AID 430); type: functional; conditions: Homo sapiens
[4] = cytotoxicity in KRAS-transformed pancreatic duct cells, primary screen, cell-based, fluorescence, HTS (AID 431); type: functional; conditions: Homo sapiens;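 note: cell line used: HPDE-C7K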
HT-1080 = test: cytotoxicity in HT1080 fibrosarcoma cells, cell-based, fluorescence readout (AID 620); type: functional; conditions: Homo sapiens
[5] = molecular target: Neurotensin receptor type 1 (Homo sapiens, UniProt P30989); type: functional;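 note: Image-based confirmatory dose-response assay measuring agonist activity at NTR1; NTR1-expressing U2OS osteosarcoma cells imaged for beta-arrestin GFP spot formation; agonist potency where compounds increase beta-arrestin recruitment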
Paired box protein Pax-8 = Paired box protein Pax-8 (Homo sapiens, UniProt Q06710); test: inhibitors of PAX8-driven TPO luciferase reporter, dose response, RMG-I cells, cherry-pick (AID 687027); type: functional, cell-based;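 note: luciferase reporter driven by Pax8 target thyroperoxidase promoter measured by SteadyGlo luminescence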
[6] = molecular target: T1, RNA-binding protein pos-1 (Caenorhabditis elegans, UniProt G5EF15); test: inhibitors of POS-1/mex-3 RNA binding, dose response, biochemical, fluorescence polarization (AID 1964);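 note: purified POS-1 fused to maltose binding protein made in E. coli; potency of compounds blocking POS-1 binding to fluorescent RNA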
T1 sequence (G5EF15 whole entry): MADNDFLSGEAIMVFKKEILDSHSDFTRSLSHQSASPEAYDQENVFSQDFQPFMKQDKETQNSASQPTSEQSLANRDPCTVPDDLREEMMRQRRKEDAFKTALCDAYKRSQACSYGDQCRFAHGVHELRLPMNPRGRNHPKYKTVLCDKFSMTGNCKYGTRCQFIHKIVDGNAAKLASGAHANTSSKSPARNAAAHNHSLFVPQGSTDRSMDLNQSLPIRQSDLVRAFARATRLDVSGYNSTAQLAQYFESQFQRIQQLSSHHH

[7] = molecular target: T2, Zinc finger protein mex-5 (Caenorhabditis elegans, UniProt Q9XUB2); test: MEX-5/TCR-2 RNA interaction inhibitors, dose response, biochemical, C. elegans, fluorescence polarization (AID 1960)
T2 sequence (Q9XUB2 whole entry): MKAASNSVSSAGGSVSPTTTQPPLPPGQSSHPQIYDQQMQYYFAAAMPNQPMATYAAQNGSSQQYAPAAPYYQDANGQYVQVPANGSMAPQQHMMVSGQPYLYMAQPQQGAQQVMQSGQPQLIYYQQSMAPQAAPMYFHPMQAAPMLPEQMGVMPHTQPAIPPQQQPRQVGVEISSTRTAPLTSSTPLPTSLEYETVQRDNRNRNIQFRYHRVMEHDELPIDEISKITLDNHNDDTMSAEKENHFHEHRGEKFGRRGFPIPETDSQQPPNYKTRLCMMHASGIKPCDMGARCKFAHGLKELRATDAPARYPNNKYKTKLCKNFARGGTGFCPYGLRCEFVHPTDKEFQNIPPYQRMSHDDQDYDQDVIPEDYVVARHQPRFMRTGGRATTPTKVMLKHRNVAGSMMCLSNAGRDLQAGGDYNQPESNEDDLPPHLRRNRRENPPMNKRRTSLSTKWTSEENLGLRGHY

[8] = molecular target: Glucose-6-phosphate 1-dehydrogenase (Homo sapiens, UniProt P11413); test: human G6PD enzyme inhibitors, dose response, selectivity assay for P. falciparum G6PD inhibitor project, biochemical, fluorescence (AID 504792); type: functional
Hexokinase HKDC1 = molecular target: T3, Hexokinase HKDC1 (Homo sapiens, UniProt Q2TB90); test: HKDC1 hexokinase inhibitors, dose response, biochemical, W721R variant (AID 504729); type: functional
T3 sequence (Q2TB90 whole entry): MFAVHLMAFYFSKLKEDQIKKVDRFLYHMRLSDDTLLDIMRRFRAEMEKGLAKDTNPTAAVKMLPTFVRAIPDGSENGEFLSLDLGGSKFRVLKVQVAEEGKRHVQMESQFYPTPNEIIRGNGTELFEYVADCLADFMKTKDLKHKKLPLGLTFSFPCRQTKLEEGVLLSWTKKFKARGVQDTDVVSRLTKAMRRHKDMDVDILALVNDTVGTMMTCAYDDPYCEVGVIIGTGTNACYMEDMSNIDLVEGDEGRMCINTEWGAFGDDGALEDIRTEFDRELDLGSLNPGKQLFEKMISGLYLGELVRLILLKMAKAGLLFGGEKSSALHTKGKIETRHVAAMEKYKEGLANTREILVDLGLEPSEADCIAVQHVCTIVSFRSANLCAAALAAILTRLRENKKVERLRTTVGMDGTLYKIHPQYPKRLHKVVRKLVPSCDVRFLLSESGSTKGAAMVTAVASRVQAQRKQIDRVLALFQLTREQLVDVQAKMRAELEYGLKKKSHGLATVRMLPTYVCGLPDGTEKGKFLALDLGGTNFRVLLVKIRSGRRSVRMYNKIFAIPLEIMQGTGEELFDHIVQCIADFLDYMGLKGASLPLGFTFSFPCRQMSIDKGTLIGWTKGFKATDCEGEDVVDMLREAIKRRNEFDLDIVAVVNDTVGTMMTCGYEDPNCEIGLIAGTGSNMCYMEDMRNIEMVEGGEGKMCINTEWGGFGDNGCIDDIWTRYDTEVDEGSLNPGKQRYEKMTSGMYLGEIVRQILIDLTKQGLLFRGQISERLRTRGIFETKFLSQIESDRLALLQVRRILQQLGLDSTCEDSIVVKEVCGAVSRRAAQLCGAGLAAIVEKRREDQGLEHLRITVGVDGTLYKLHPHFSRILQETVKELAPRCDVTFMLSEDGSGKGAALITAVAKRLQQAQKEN

[9] = molecular target: T4, Polyadenylate-binding protein 1 (Homo sapiens, UniProt P11940); test: PABP1 MLLE–PAM2 interaction inhibitors, dose response, miRNA deadenylation inhibitor project, biochemical, fluorescence polarization, Cy5-PAM2 peptide, secondary (AID 602260); type: functional; conditions: read-out: IC50_Mean
[10] = molecular target: T4, Polyadenylate-binding protein 1; test: PABP1 MLLE–PAM2 binding inhibitor potency, dose response, biochemical, fluorescence polarization, FITC-PAM2 peptide (AID 602259); type: functional; conditions: read-out: IC50_Mean
[11] = molecular target: T5, Scavenger receptor class B member 1 (Mus musculus, UniProt Q61009); test: inhibitors of SR-BI mediated HDL lipid uptake, dose response, ldlA[mSR-BI] cells, fluorescence, cherry pick (AID 493194); type: functional, cell-based;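 note: cellular uptake of fluorescent DiI-labeled HDL measured as cell fluorescence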
T5 sequence (Q61009 whole entry): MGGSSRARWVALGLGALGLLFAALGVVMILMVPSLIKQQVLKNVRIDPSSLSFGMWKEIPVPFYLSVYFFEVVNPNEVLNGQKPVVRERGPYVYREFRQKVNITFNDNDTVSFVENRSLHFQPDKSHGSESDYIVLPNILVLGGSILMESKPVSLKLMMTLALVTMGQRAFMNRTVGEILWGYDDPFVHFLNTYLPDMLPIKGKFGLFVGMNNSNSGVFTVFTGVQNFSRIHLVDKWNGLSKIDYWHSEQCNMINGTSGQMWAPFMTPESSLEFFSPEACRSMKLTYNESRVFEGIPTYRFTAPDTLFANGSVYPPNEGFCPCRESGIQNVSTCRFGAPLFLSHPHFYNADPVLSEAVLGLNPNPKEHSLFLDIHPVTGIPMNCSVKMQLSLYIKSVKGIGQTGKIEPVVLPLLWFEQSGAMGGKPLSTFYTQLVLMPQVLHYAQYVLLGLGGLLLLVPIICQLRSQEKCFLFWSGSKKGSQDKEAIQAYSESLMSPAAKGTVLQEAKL

[12] = molecular target: Voltage-gated N-type calcium channel alpha-1B subunit/Amyloid beta A4 precursor protein-binding family A member 1 (Homo sapiens, UniProt Q00975+Q02410); test: disruptors of Mint-PDZ/N-type channel peptide interaction – biochemical, HTRF, set 2, SAR follow-up (AID 434980); type: functional
Sequence of Voltage-gated N-type calcium channel alpha-1B subunit/Amyloid beta A4 precursor protein-binding family A member 1 (Q00975 whole entry): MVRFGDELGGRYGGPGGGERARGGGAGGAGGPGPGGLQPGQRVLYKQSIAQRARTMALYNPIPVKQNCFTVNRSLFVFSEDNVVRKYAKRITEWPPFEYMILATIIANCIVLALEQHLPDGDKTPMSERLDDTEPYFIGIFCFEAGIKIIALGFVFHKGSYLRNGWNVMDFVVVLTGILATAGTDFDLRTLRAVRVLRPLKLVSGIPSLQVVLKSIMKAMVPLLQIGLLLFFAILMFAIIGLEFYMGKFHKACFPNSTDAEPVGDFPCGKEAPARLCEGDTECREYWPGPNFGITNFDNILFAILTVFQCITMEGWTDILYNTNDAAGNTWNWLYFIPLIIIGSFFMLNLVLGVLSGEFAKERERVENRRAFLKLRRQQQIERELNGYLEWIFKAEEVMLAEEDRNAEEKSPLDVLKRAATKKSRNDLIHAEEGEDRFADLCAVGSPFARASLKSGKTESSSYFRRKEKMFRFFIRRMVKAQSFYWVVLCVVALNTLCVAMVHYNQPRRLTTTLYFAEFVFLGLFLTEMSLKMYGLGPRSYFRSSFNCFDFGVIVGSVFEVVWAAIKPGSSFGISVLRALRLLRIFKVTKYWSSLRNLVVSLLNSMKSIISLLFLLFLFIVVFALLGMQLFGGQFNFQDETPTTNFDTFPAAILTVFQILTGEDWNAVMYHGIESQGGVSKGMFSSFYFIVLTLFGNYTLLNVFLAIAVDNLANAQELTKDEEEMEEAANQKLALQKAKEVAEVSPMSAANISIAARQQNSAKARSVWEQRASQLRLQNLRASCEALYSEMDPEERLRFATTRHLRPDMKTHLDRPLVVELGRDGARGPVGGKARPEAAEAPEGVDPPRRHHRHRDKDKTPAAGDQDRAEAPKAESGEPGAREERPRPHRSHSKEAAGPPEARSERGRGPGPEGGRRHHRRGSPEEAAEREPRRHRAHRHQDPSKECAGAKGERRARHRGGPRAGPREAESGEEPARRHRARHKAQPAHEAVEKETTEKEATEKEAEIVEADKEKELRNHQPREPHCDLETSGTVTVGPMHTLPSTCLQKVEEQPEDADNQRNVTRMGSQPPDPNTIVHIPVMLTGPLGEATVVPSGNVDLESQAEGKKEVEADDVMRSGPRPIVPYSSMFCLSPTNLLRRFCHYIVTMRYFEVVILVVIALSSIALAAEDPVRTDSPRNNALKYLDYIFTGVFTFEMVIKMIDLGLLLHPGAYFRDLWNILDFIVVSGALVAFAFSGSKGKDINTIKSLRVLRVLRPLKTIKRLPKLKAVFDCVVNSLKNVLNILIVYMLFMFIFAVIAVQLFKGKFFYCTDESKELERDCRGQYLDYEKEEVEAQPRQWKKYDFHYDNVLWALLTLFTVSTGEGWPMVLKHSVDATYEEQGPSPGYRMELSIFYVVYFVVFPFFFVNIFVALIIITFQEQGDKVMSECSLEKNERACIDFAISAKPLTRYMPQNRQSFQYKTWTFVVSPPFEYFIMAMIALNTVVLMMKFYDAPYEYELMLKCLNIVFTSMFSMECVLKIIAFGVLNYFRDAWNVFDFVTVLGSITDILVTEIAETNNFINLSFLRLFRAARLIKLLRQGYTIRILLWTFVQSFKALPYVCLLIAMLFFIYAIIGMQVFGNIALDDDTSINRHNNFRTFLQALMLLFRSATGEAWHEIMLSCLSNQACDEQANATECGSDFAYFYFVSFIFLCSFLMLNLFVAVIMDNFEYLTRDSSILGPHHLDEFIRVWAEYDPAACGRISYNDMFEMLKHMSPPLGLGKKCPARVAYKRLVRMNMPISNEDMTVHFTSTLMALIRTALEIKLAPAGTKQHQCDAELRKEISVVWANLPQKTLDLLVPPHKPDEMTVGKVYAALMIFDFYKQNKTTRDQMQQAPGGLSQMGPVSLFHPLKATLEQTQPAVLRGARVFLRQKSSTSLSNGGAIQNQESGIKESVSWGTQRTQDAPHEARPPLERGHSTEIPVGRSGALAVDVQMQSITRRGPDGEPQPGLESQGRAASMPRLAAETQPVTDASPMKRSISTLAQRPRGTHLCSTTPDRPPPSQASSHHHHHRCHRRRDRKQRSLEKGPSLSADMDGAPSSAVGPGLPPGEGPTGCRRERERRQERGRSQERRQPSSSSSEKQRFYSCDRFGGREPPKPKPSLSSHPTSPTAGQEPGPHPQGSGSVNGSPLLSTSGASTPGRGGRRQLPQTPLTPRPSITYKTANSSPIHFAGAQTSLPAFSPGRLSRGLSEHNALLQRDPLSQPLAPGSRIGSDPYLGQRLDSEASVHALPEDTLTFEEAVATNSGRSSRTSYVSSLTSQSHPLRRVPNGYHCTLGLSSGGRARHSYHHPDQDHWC
Sequence of Voltage-gated N-type calcium channel alpha-1B subunit/Amyloid beta A4 precursor protein-binding family A member 1 (Q02410 whole entry): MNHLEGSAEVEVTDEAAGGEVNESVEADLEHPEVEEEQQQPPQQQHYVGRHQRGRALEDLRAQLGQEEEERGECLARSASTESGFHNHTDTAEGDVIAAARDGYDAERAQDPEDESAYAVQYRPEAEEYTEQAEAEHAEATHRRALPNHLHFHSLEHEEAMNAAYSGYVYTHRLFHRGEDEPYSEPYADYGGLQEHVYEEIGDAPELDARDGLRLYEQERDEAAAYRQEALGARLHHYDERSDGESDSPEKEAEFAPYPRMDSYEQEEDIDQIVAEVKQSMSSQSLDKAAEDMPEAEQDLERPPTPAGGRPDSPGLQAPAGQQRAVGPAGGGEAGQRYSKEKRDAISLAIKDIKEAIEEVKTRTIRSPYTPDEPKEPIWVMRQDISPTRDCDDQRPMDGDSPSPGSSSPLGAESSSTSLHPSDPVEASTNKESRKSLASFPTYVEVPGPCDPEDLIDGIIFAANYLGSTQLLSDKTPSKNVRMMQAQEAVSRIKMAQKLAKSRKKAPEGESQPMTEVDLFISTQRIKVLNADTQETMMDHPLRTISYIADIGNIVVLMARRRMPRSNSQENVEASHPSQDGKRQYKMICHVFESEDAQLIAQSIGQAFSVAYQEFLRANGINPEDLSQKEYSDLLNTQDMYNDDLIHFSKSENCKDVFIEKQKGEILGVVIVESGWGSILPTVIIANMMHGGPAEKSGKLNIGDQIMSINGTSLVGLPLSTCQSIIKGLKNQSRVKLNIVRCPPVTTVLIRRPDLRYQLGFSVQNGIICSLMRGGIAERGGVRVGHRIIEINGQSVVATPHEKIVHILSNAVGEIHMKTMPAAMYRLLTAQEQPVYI

T4 sequence (P11940 whole entry): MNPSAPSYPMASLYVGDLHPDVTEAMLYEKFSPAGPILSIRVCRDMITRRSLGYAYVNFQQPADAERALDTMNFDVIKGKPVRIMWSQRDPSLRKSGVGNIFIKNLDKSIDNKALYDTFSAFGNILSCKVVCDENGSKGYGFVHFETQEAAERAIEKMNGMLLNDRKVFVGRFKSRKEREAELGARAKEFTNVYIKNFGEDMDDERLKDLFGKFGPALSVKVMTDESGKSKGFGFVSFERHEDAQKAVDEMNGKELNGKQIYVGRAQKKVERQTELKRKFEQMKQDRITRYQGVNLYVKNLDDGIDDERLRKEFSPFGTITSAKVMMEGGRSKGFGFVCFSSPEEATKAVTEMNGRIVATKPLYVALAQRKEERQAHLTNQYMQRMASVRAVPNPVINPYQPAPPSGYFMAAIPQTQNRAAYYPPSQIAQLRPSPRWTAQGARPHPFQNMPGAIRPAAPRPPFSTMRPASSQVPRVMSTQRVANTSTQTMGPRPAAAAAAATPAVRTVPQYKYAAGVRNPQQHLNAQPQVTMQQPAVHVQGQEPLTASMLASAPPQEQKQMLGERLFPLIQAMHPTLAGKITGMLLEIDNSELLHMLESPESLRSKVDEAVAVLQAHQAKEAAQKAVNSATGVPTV
Sequence of Luciferin 4-monooxygenase (P08659 whole entry): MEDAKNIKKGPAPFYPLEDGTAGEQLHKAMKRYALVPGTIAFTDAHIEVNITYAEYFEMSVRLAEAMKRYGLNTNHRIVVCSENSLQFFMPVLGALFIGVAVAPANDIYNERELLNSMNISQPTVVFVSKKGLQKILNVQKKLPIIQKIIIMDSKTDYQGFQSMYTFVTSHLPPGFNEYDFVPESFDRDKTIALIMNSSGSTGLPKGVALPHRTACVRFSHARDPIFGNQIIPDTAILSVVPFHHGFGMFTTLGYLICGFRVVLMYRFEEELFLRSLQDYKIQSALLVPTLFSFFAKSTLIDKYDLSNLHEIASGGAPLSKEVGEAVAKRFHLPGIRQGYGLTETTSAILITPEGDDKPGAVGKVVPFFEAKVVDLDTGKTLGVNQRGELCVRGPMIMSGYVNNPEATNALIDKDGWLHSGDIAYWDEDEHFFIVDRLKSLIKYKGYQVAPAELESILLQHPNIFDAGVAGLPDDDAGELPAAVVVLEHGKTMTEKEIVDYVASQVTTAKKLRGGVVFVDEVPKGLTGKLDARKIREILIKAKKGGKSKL
Sequence of Neurotensin receptor type 1 (P30989 whole entry): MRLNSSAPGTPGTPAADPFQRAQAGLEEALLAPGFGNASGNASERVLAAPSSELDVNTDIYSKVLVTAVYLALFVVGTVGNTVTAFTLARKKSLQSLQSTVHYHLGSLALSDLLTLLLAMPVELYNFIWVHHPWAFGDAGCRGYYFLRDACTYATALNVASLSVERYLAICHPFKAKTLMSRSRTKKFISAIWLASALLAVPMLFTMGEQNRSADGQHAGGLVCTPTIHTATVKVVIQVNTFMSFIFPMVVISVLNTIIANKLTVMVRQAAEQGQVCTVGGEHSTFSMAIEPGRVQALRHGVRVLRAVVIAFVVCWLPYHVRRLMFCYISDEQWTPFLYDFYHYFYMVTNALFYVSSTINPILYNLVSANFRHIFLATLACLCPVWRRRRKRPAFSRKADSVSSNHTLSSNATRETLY

Structure (SMILES): c1ccc(C(c2ccccc2)c2cccnc2)cc1
AC50 [1]: 45.6 µM (active)

Structure (SMILES): Cc1ccc(-c2csc3ncnc(Sc4nnc(CN5CCCCCC5=O)o4)c23)cc1
EC50 [2]: 74 µM (active)
EC50 [3]: 1.78 µM (active)
EC50 [4]: 2.1 µM (active)
EC50 (HT-1080): 20.1 µM (active)
EC50 [5]: 8.73 µM (active)
AC50 (Paired box protein Pax-8): 5 µM (active)

Structure (SMILES): CN(C)Cc1cc(O)c(CN(C)C)cc1O
EC50 [6]: 22.3 µM (inconclusive)
EC50 [7]: 5.82 µM (active)
IC50 [8]: 34.7 µM (inactive)
IC50 (Hexokinase HKDC1): 49.6 µM (inactive)
IC50 [9]: > 66 µM (inactive)
IC50 [10]: 50.7 µM (inactive)

More lines, now with the values ahead:

AC50 [11]: 0.092 µM (active)
Structure (SMILES): Cc1ccccc1CN1CCN(C(=O)c2ccc(S(=O)(=O)NCc3ccco3)cc2)CC1

IC50 [12]: > 56.8 µM (inactive)
Structure (SMILES): O=C(c1cc(-c2ccco2)nc2ccccc12)N1CCC(N2CCOCC2)CC1
